From a melting point compilation (Tetko et al.; mined from patent text by program, amines drawn as free bases though some values may be those of a salt) come the findings set out here.

In general, melting point refers to the temperature of the solid-liquid transition. On to `CCCOCCOc1ccc(-c2ccc3c(c2)C=C(C(=O)Nc2ccc(CN(C)C4CCOCC4)cc2)CCS3(=O)=O)c(C)c1C`, for which the melting point was in the range of 158 to 159 °C. On to `COCOc1ccc(-c2ncc3ncc(Cl)cc3n2)cc1`, for which the melting point was greater than 268 °C. Compound `O=[N+]([O-])c1ccc(-c2nc(-c3ccccc3)no2)o1` registered a melting point of 164 to 166 °C. With `CCNC(=O)C1OC(n2cnc3c(NNC(=O)c4ccccc4)ncnc32)C2OC(C)(C)OC12` (stereo unspecified), the melting point was in the range of 116 to 117 °C. In turn, `O=C(c1cccc(Cl)c1)C1C(=O)c2ccccc2C1=O` showed a melting point of 148 to 149 °C.

In the case of `O=C(Nc1ccc(C(=O)N2CCc3sc(Cc4ccccn4)nc3-c3ccccc32)cc1)c1ccccc1-c1ccccc1`, the melting point was 215 to 218 °C. With `COc1cc(CCNC(=S)Nc2nccs2)ccc1OC(C)C`, the melting point was 140 to 141 °C. In turn, `CC1(C)CC(S(=O)(=O)Cc2cnccc2C(F)(F)F)=NO1` registered a melting point of 77 to 80 °C. As to `Clc1ccc2ncc(Cl)n2n1`, the melting point lay in the range of 120 to 121 °C. In turn, `Cc1ccc(-c2nn(-c3ccccc3)c(N)c2C(N)=O)cc1` yielded a melting point of 186 to 187 °C. `Cc1cc(Cl)ccc1Oc1cccc(-c2ncccn2)n1` had a melting point of 105 °C. The result for `CCN(CC)C(C(C(=O)C(C)(C)C)n1cncn1)C(Cl)(Cl)Cl` (stereo unspecified) reads 103 to 110 °C; that for `CCCCc1nc(C(C)(O)CC)c(C#N)n1C(c1ccccc1)(c1ccccc1)c1ccccc1` (stereo unspecified), 90 to 93 °C. `NC(=NC(=O)c1nc(Cl)c(N)nc1N)NCCCCc1ccc(OCC(=O)Nc2ccccc2)cc1` yielded a melting point of 168 to 170 °C. In turn, `COc1cc2c(cc1OCc1ccccc1)CCCN(Cc1cc(OC)c(OC)c(OC)c1)C2=O` yielded a melting point of 134 to 135 °C. In turn, `COc1cc(C=CC(=O)c2ccccc2O)cc(OC)c1` yielded a melting point of 110 to 111 °C. The result for `O=C(Nc1nc2ccc(OCc3c(Cl)cccc3Cl)cc2s1)C1CC1` reads 178 °C; that for `CCCCC1c2ccccc2-c2ccccc2N1S(=O)(=O)c1ccc(OC)cc1` (stereo unspecified), 127 to 129 °C. The compound `CN1C(c2ccc(Br)cc2)C2C(=O)N(Cc3ccc4c(c3)OCO4)C(O)C2C1(C)C` (stereo unspecified) had a melting point of 158 to 159 °C. On to `CO/N=C(\C(=O)O)c1ccccc1COc1cc(C)ccc1C`, for which the melting point lay within 112 to 114 °C. Consider `O=c1c2c(oc3c1nnn3Cc1ccccc1)CSC2`, for which the melting point was in the range of 210 to 212 °C. `O=C(O)c1cccc(C(CC(=O)c2ccc(F)cc2)CC(=O)c2ccc(F)cc2)c1`: the melting point lay within 205 to 207 °C. Turning to `CC(C)c1nsc2ccc(-n3c(=O)cc(C(F)(F)F)n(C)c3=O)cc12`, the melting point fell in the range of 139 to 140 °C. The compound `N#Cc1ccc(-c2ccc3c(c2)CCc2nn(-c4ccccn4)c(O)c2-3)cc1` displayed a melting point of 274 to 275 °C. The result for `CCOC(=O)C=Cc1ccc(OCc2coc(-c3ccccc3)n2)c(OC)c1` reads 128 to 129 °C. For `C1=C(c2ccccc2)CCN(Cc2n[nH]c3c2CCc2ccccc2-3)C1`, the melting point lay in the range of 175 to 176 °C.

For the compound `O=COC[C@@H]1C(=O)N[C@H]1SC(c1ccccc1)(c1ccccc1)c1ccccc1` (relative stereo), the melting point lay within 143 to 144 °C. Regarding `CNc1ccc(-c2nc3c4ccccc4ccc3n2C)cc1`, the melting point fell in the range of 225 to 227 °C. As to `O=c1c2cc(F)ccc2ncn1CCN1CC=C(c2c[nH]c3ccccc23)CC1`, the melting point came to 138 °C. On to `Cc1cc(NCC(C)C)c2[nH]ncc2n1`, for which the melting point is 162 to 164 °C.

As to `Nc1ccc(OC(F)F)cc1[N+](=O)[O-]`, the melting point lay in the range of 68 to 70 °C. Regarding `CC(C)(C1CCCCC1)C(NC(=O)c1ccc(Cl)cc1)Nc1c(Nc2cccnc2)c(=O)c1=O` (stereo unspecified), the melting point lay within 275 to 276 °C. Take `C[C@H](N=Cc1ccc(OCc2ccccc2F)cc1)C(N)=O`: the melting point was 121 °C. Compound `CCOC(=O)c1cn(NCC=O)c2nc(C)ccc2c1=O` had a melting point of 210 to 212 °C. For the compound `CCC#CCOc1ccc(/C=C/C(=O)Nc2ccccc2C(=O)O)cc1OC`, the melting point stood at 186 °C. With `CC(CSC(=O)Nc1ccccc1)C(=O)N(CC(=O)O)C1CCCC1` (stereo unspecified), the melting point fell in the range of 170 to 172 °C. As for `COC(=O)CCC1OC(=O)N=C1c1ccccc1` (stereo unspecified), the melting point was 104 to 105 °C. Take `COc1ccccc1N1CCN(CCNC(=O)CCN2CCC(c3c[nH]c4cc(Cl)ccc34)CC2)CC1`: the melting point was in the range of 69 to 71 °C. The compound `Cc1cccc(C)c1NNC(=O)c1cccc2c1CC(N(C(=O)C(F)(F)F)C1CC1)CO2` (stereo unspecified) came in with a melting point of 146 to 149 °C. Compound `OC1Cc2cc(Br)ccc2Sc2ccccc21` (stereo unspecified) came in with a melting point of 108 to 110 °C. `N#CC1CN(C(=O)[C@H](NC(=O)c2c[nH]c3ncc(-c4ccccc4)nc23)C2CC2)C1` returned a melting point of 200 to 202 °C. `CCn1c(=NC(C)=O)c(-c2cc(OC)cc(OC)c2)cc2cnc(SC)nc21` displayed a melting point of 145 to 150 °C. Consider `Fc1ccc(CN2CCc3cc(OC[C@H]4CO[C@](Cn5ccnc5)(c5ccc(Cl)cc5Cl)O4)ccc3C2)cc1` (racemic), for which the melting point is 119 to 120 °C.

Compound `Cc1nc2ccc(O)cc2c(=O)n1C1CCC(=O)NC1=O` (stereo unspecified) showed a melting point of 315 to 317 °C. The compound `Cc1ccccc1C(=O)N1CCc2nnc(NN)cc2C1` displayed a melting point of 98 to 100 °C. Regarding `Cn1c(=O)n(Cc2ccccc2)c(=O)c2cc(C(=O)OCc3ccccc3)sc21`, the melting point fell in the range of 143 to 145 °C. On to `Cn1nc(C=O)c(Br)c1C(C)(C)CNC(=O)c1ccccc1`, for which the melting point was in the range of 150 to 151 °C. In turn, `COc1cn(-c2cccnc2)nc(-c2ccnn2-c2ccccc2)c1=O` yielded a melting point of 210 to 212 °C. The result for `CCOC(=O)CC(=O)c1ccc([N+](=O)[O-])c(OC)c1` reads 94 to 95 °C; that for `Clc1ccccc1-c1ccc2nncn2c1`, 177 to 180 °C.

With `CC(C)(C)NC(=O)c1ncc[nH]1`, the melting point is 134 °C.

Compound `O=C(C=Cc1ccccn1)c1ccc(OCc2ccccc2)cc1` yielded a melting point of 131 to 134 °C. Then `CCCCOc1ccc(Nc2cc(Nc3ccc4c(c3)OCCO4)ncc2F)cc1`, with 150 to 151 °C; and `COC(=O)c1ccnc(N2CCN(Cc3cccnc3)C2=O)c1`, with 165 to 167 °C.

In the case of `O=C1c2cccc(Cl)c2C(O)N1c1ccc2ccc(Cl)nc2n1` (stereo unspecified), the melting point amounted to 270 °C. The result for `COc1cc2c(cc1OC)[C@H]1CCCC[C@H]1N=C2c1ccc(C(C)=NNC(=O)c2cccnc2)cc1` reads 162 °C.

Take `CC(=NNc1ccc(-c2c[nH]c(=O)cn2)cc1)c1ccncc1`: the melting point was 175 to 179 °C.

Regarding `O=[N+]([O-])c1ccc(Oc2ccc(C(F)(F)F)cc2Cl)cc1CCl`, the melting point fell in the range of 55 to 60 °C. For `O=C1NCC(Cc2ccccc2Br)O1` (stereo unspecified), the melting point was 130 to 131 °C.

Take `COc1ccc(C2(O)C=CC=CC2CCc2c(Cl)cncc2Cl)cc1OC1CCCC1` (stereo unspecified): the melting point lay within 129 to 130 °C. The result for `O=C(c1c[nH]c2cc(C(F)(F)F)ccc12)C(F)(F)F` reads 250 to 251 °C. The result for `CC(C)Oc1ccc(/C=C(\NC(=O)c2ccc(OCCCCC3CC3)cc2)C(=O)NCCO)cc1` reads 53 to 55 °C. Consider `COc1ccc([N+](=O)[O-])c(-c2cc(OC)ccc2[N+](=O)[O-])c1`, for which the melting point lay within 148 to 149 °C.

`CC(=O)Nc1cccc(C=CC(=O)C2C(=O)OC(=O)C(C(C)=O)=C2O)c1` (stereo unspecified) registered a melting point of 222 to 224 °C.

On to `Nc1cccc(C(=O)N2N=C(C(F)(F)F)CC2(O)c2cc(F)c(Cl)cc2F)c1` (stereo unspecified), for which the melting point was in the range of 123 to 124 °C. On to `O=C(Cc1ccccc1)NC1C(=O)N2CC(C(=O)OCc3ccc([N+](=O)[O-])cc3)SC12` (stereo unspecified), for which the melting point is 181 to 183 °C.

As to `COc1ccc(C=C2CCCN2Cc2ccccc2)cc1OC`, the melting point stood at 105 °C. For the compound `CN(C)CCCC1(O)c2ccccc2CCn2cccc21` (stereo unspecified), the melting point lay in the range of 68 to 70 °C. In turn, `CNc1nc2c(C)cccc2c2c1ccn2-c1ccccc1C` showed a melting point of 129 to 130 °C.

Compound `Cc1cccc(-c2nc(Cl)cc(-c3ccccc3Cl)n2)n1` came in with a melting point of 133 °C. `CCCN(CCC)S(=O)(=O)c1ccc(C(=O)c2cc3c(cc2C)OC(C(=O)OCC)O3)cc1` (stereo unspecified) registered a melting point of 97 to 99 °C. The result for `O=C(O)C1CC(c2ccc(-c3ccc(N4C[C@H](Cn5ccnn5)OC4=O)cc3F)cn2)=NO1` (stereo partly specified) reads 190 to 194 °C. On to `COC(=N)NC(=O)CCl`, for which the melting point was 123 °C. With `CC(=O)Nc1nc2c(Oc3cc(-c4ccc(C(F)(F)F)nc4N(C)CC4CCCCN4CC(C)C)ncn3)cccc2s1` (stereo unspecified), the melting point was in the range of 123 to 125 °C.

For the compound `COc1c(NC(=O)c2ccc(-c3ccncc3)cc2)cccc1N1CCN(C)CC1`, the melting point fell in the range of 153 to 155 °C. For the compound `CS(=O)(=O)c1ccc(COc2cc(C=C3SC(=S)N(CC(=O)O)C3=O)ccc2OCc2ccccc2)cc1`, the melting point fell in the range of 207 to 211 °C. For `C#Cc1ccccc1-c1ccc(I)cc1`, the melting point was 114 °C.

Take `CC(=O)OCCC1CCN(CCCN2c3cc(OCc4ccccc4)ccc3Sc3c2cccc3S(=O)(=O)N(C)C)CC1`: the melting point lay within 94 to 96 °C. For `CCOc1ccccc1C(=O)Nc1ccc2oc(Nc3ccc(CC)cc3)nc2c1`, the melting point came to 182 °C. Then `CN(C)c1cccc(N(C)C)c1NC(=O)N(Cc1ccc(O)cc1)CC1(c2ccccn2)CCCCC1`, with 162 to 166 °C.

For the compound `CC(=Nc1c(C)cccc1C)C(C)=Nc1c(C)cccc1C`, the melting point lay within 78 to 86 °C.

For the compound `COc1ccc(OCCCCCCCc2cc(C)no2)c([N+](=O)[O-])c1`, the melting point was determined as 51 °C.

As for `O=C(Nc1cccc(S(=O)(=O)NCc2ccncc2)c1)c1cnn2c(C(F)F)cc(-c3ccc(C(F)(F)F)cc3)nc12`, the melting point worked out at 221 °C. In turn, `CSc1ccc(-n2cnc3ccc(-c4nnc(C5CC5)o4)cc32)cc1` showed a melting point of 198 to 199 °C. Turning to `Cc1ccccc1P1(=O)c2ccccc2CN1c1ccccc1` (stereo unspecified), the melting point lay in the range of 181 to 183 °C.

In turn, `N#Cc1cc(Sc2ccc(Cl)c(Cl)c2)ccc1N` returned a melting point of 126 to 128 °C.
